Laboratory results published in patent publication US20090042861A1, “Prophylactic or Therapeutic Agent for Depression or Anxiety Disorder” (Takeda Pharmaceutical Company Limited, priority 2005, published 2009).

Experiments:
male ICR (Jcl) mice = assay: Mouse tail suspension test; format: in vivo; conditions: for moving power at the trial of tail suspension test: FIGS. 9, 10
Procedure: Action on immobility and moving power in a single application test of Paroxetine and compound A Used Animals: male ICR (Jcl) mice of 6 weeks old were used. Drug Administration Group and Test Method: Test was carried out for the following conditions. (each group n=12)
(§1) Paroxetine was dissolved in 0.5% methylcellulose physiological saline, and compound A was suspended in 0.5% methylcellulose aqueous solution for injection. To control group, a 0.5% methylcellulose physiological saline for injection was administered as vehicle. A dose of 20 ml/kg was administered intraperitoneally, respectively. Administration was carried out 30 minutes before trial of tail suspension.
Animals were put in a 5-row-cage with 8 each cage, and fully habituated. Drug administrations and trials were performed between 13:00 and 17:00.
An automated measuring equipment made according to the method of Steru (Psycopharmacology 85, 367-370, 1985) was used for measurement. The mouse was suspended by the tail in a soundproof box (16 cm×38 cm×33 cm) divided individually, and then the immobility rate of 10 minutes duration was measured. Tail suspension was carried out by fixing a 5 cm wire to a sensor and suspending the mouse with fixing its tail with a tape at the end of the wire. By weighing every 10 msec, the movement of the mouse was calculated through A/D converter as moving power for one second. The moving power of less than 1% of body weight of mouse was considered to be in the immobile state, and the immobility rate for every one minute was measured. Test was carried out for 10 minutes, and all the experiments were controlled with personal computer (NEC-9801).
Action on immobility and moving power in a combined application test of Paroxetine and compound A Used Animals: male ICR (Jcl) mice of 6 weeks old were used. Drug Administration Group and Test Method: Test was carried out for the following conditions. (each group n=15-16)
as §1, with “vehicle. As a drug solution to be combined, a drug solution having twice concentration of final concentration was prepared, and adjusted to final concentration by mixing equal amounts.” for “vehicle.”

male Wister (Jcl) rats [1] = assay: Water-drinking conflicting test; format: in vivo, rat; conditions: Example 1
Procedure: Animal: male Wister (Jcl) rats were purchased at the age of 8 weeks old, and used at the age of 9 weeks old.
First, rats were put in a separate cage, and abstained from water for two days under light-dark (12-hour cycle) condition. On the day of experiment, rats were habituated to the experiment room for more than 60 minutes, and administered intraperitoneally with 30 mg/kg of compound A, 30 mg/kg of melatonin or vehicle, and then test was carried out 30 minutes after the administration.
The drug used (compound A, melatonin) was suspended in 0.5% methylcellulose physiological saline to adjust dosage to 2 mL/kg, and administered intraperitoneally. To the vehicle administration group, a 0.5% methylcellulose physiological saline was administered in the same way. All administrations and trials were performed between 9:00 and 12:00.
In the present experiment, when the animals pre-raised under a water-deprived condition drink water, they are placed in a conflicting state that they get electroshocked under the following condition.
Test Time: 300 seconds, Shock Condition: in case either 20 times of lick frequency or 2 seconds of lick time is satisfied
Shock ON Time: 2 seconds, Time-out: 180 seconds, Stimulus Intensity: 0.6 mA
Animal: male Wister (Jcl) rats were purchased at the age of 8 weeks old, and used at the age of 9 weeks old. Drug Administration Group and Test Method: Test was carried out for the following conditions. (each group n=10)
Compound A and Diazepam were suspended in 0.5% methylcellulose solution to adjust dosage to 2 mL/kg, and administered intraperitoneally. To control group, a 0.5% methylcellulose physiological saline for injection was administered as vehicle. As a drug solution to be combined, a drug solution having twice concentration of final concentration was prepared, and adjusted to final concentration by mixing equal amounts. A dose of 2 mL/kg was administered intraperitoneally, respectively. All administrations and trials were performed between 9:00 and 13:00.
First, rats were put in a separate cage, and abstained from water for two days under light-dark (12-hour cycle) condition. On the day of experiment, rats were habituated to the experiment room for more than 60 minutes, and each drug was administered intraperitoneally, and then test was carried out 30 minutes after the administration.
Significant difference test was performed with using Williams' test for vehicle administration group and multigroup drug administration groups. t-Test was used for vehicle administration group and single drug administration groups. A dose of compound A (0.3, 10 and 30 mg/kg) and 0.3 mg/kg of Diazepam were administered in combination.

male Wister (Jcl) rats [2] = assay: Elevated plus-maze test; format: in vivo, rat; conditions: Example 3
Procedure: Animal: male Wister (Jcl) rats were purchased at the age of 5 weeks old, and used at the age of 6 weeks old.
An elevated plus-maze test equipment having arm 50 cm long by 10 cm wide was used. Its height was 40 cm, and the height of closed arm was adjusted to the same. Black was used as the color of wall. Lighting in experiment room was set to 5 lux of illuminance on the equipment.
The animals were handled from 2 days before test. Test was carried out between 8 a.m. and […]., and the animals were naturalized in the conduct test room at a measurement illuminance from 1 hour before the start of test.
The drug used (compound A, melatonin) was suspended in 0.5% methylcellulose physiological saline to adjust dosage to 2 mL/kg, and administered intraperitoneally. To the vehicle administration group, a 0.5% methylcellulose physiological saline was administered in the same way.
In the elevated plus-maze test, the animal was put in the central region of maze with the head to the direction of closed arm, and the conduct of 5 minutes duration was observed. Measurement items were number of entries into open arms and time spent in open arms which were used as an indicator of anxiety conducts, and it was considered that the more the number of entries into open arms, time spent in open arms and dipping frequency are, the less the anxiety conducts are. Further, the number of entries into closed arms was counted, which was used as an indicator of amount of motor-activity. […] Test was performed with n=10 for each group. Trial was carried out over 2 days, and 2 days' data were summed up as one test.
Significant difference test was performed with using Williams' test for vehicle administration group and multigroup drug administration groups.

Compound: CCC(=O)NCC[C@@H]1CCc2ccc3c(c21)CCO3 [Compound A, (S)-N-[2-(1,6,7,8-Tetrahydro-2H-indeno[5,4-b]furan-8-yl)ethyl]propionamide]
- immobility (male ICR (Jcl) mice; Example 4, single application, 3, 10 and 30 mg/kg (i.p.), 30 minutes before trial, FIGS. 7, 8): didn't have an affect
- moving power at the trial of tail suspension test (male ICR (Jcl) mice; Example 4, single application, 3, 10 and 30 mg/kg (i.p.)): didn't have an affect
- effect on the antidepressant action of Paroxetine (male ICR (Jcl) mice; Example 5, Compound A 1, 3 and 10 mg/kg with Paroxetine 1 mg/kg (i.p.)): enhances the antidepressant action of Paroxetine
- lick frequency (male Wister (Jcl) rats [1]; 30 mg/kg intraperitoneally, test 30 minutes after administration, vs vehicle group, Williams' test, FIG. 1): significant increasing effect
- shock frequency (male Wister (Jcl) rats [1]; 30 mg/kg intraperitoneally, test 30 minutes after administration, vs vehicle group, Williams' test, FIG. 2): significant increasing effect
- time spent in open arms (male Wister (Jcl) rats [2]; intraperitoneal, 5 minutes observation, vs vehicle group, FIG. 5): an increase
- number of entries into open arms (male Wister (Jcl) rats [2]; intraperitoneal, 5 minutes observation, vs vehicle group, FIG. 6): an increase

Compound: CN1C(=O)CN=C(c2ccccc2)c2cc(Cl)ccc21 [Diazepam]
- effect in this system (control drug) (male Wister (Jcl) rats [1]; control drug, dose not given): exhibits an effect
- effect in this system (control drug) (male Wister (Jcl) rats [2]; control drug, dose not given): exhibits an effect

Compound: Fc1ccc([C@@H]2CCNC[C@H]2COc2ccc3c(c2)OCO3)cc1 [Paroxetine]
- moving power at the trial of tail suspension test (male ICR (Jcl) mice; Example 4, single application, 0.3, 1, 3 and 10 mg/kg (i.p.), vs vehicle group): increase a little

Compound: COc1ccc2[nH]cc(CCNC(C)=O)c2c1 [melatonin]
- anti-conflicting effect (male Wister (Jcl) rats [1]; 30 mg/kg intraperitoneally, test 30 minutes after administration, vs vehicle group, Williams' test): a little anti-conflicting effect was observed, but it was not a significant effect
- action in elevated plus-maze (open arm entries and time) (male Wister (Jcl) rats [2]; intraperitoneal, vs vehicle group, Williams' test): a significant action was not observed
